ChEMBL document CHEMBL1201862, “PubChem BioAssay data set” (2004)
The source made the active and inactive calls.

Experiments:
[1] = molecular target: T1, High affinity choline transporter 1 (Homo sapiens, UniProt Q9GZV3); test: human choline transporter potentiators, potency – cell-based, 10-point CRC, membrane potential dye, dose response (AID 602376); format: functional
T1 sequence (Q9GZV3 whole entry): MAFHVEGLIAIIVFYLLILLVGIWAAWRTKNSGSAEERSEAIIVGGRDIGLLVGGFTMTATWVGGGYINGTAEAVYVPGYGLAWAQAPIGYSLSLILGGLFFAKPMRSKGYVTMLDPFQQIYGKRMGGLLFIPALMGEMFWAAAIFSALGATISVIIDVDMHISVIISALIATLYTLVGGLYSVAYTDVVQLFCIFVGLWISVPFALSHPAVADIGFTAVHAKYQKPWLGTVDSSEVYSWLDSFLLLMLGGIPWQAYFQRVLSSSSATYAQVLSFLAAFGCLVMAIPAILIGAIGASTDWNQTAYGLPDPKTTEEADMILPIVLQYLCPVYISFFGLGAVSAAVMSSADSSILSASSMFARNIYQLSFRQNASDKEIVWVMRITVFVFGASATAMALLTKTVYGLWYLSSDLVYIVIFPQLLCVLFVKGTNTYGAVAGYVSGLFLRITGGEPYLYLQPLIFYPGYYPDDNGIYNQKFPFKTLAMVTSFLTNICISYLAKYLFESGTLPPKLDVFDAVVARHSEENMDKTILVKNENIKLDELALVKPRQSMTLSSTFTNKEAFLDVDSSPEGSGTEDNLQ

[2] = molecular target: T2, Sentrin-specific protease 8 (Homo sapiens, UniProt Q96LD8); test: inhibition of human SENP8 cleavage activity – biochemical, luminescence, SAR follow-up (AID 504501); format: functional
T2 sequence (Q96LD8 whole entry): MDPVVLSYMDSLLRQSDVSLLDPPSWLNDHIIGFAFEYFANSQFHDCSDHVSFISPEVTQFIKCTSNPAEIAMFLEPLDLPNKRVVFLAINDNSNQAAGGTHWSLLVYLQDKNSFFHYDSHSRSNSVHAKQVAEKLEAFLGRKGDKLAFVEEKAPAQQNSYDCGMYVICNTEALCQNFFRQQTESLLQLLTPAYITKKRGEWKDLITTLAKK

[3] = molecular target: T3, Caspase-3 (Homo sapiens, UniProt P42574); test: inhibition of recombinant caspase-3 activity – biochemical, luminescence, set 2, selectivity assay for SENP protease inhibitor project, SAR follow-up (AID 588599); format: functional
T3 sequence (P42574 whole entry): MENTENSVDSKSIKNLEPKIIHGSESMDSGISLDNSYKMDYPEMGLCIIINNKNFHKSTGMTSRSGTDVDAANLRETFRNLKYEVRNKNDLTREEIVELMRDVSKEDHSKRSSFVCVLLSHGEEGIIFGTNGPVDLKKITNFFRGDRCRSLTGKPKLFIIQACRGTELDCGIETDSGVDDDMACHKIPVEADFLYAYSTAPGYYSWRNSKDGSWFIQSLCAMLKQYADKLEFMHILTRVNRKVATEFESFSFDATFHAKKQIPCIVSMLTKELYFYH

[4] = molecular target: T2, Sentrin-specific protease 8; test: inhibition of sentrin protease 8 – biochemical, luminescence, set 2, SAR follow-up (AID 588601); format: functional
[5] = molecular target: T3, Caspase-3; test: SAR Analysis of small molecule inhibitors of Sentrin-specific proteases (SENPs) using a Caspase-3 Selectivity assay. [Related pubchem assays (depositor defined):AID2540, AID2599, AID434973, AID489001]; format: functional
[6] = molecular target: T4, Sentrin-specific protease 7 (Homo sapiens, UniProt Q9BQF6); test: inhibition of human SENP7 cleavage activity – biochemical, luminescence, set 2, SAR follow-up (AID 588600); format: functional
T4 sequence (Q9BQF6 whole entry): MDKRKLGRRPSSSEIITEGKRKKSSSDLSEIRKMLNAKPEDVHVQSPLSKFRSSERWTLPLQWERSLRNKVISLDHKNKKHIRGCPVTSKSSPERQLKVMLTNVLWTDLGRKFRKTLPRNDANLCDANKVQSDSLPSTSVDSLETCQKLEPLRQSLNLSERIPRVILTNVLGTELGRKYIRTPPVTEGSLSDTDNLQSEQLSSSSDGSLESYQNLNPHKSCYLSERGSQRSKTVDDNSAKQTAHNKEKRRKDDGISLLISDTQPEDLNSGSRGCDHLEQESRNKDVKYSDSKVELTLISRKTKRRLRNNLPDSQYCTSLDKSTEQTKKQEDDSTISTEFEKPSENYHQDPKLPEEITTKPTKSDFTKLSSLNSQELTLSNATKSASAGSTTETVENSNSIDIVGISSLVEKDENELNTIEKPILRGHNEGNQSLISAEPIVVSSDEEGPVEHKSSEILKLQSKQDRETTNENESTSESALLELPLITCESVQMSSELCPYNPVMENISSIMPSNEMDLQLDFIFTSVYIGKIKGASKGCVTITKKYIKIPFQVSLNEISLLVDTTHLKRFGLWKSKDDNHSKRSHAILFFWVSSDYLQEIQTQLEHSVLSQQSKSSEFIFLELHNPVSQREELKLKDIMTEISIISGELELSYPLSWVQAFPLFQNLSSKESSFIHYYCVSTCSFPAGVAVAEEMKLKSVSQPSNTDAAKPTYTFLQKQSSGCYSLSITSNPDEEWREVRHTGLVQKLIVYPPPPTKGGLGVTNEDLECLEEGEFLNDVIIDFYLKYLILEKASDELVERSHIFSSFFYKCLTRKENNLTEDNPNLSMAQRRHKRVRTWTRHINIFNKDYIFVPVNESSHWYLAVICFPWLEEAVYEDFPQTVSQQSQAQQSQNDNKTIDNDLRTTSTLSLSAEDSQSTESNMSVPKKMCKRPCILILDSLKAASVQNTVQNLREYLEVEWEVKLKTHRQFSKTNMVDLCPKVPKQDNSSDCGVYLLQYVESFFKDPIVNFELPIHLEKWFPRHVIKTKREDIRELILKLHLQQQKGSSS

[7] = molecular target: T5, Sentrin-specific protease 6 (Homo sapiens, UniProt Q9GZR1); test: SAR Analysis of small molecule inhibitors of Sentrin-specific protease 6 (SENP6) using a Luminescent assay. [Related pubchem assays (depositor defined):AID2582, AID2599]; format: functional
T5 sequence (Q9GZR1 whole entry): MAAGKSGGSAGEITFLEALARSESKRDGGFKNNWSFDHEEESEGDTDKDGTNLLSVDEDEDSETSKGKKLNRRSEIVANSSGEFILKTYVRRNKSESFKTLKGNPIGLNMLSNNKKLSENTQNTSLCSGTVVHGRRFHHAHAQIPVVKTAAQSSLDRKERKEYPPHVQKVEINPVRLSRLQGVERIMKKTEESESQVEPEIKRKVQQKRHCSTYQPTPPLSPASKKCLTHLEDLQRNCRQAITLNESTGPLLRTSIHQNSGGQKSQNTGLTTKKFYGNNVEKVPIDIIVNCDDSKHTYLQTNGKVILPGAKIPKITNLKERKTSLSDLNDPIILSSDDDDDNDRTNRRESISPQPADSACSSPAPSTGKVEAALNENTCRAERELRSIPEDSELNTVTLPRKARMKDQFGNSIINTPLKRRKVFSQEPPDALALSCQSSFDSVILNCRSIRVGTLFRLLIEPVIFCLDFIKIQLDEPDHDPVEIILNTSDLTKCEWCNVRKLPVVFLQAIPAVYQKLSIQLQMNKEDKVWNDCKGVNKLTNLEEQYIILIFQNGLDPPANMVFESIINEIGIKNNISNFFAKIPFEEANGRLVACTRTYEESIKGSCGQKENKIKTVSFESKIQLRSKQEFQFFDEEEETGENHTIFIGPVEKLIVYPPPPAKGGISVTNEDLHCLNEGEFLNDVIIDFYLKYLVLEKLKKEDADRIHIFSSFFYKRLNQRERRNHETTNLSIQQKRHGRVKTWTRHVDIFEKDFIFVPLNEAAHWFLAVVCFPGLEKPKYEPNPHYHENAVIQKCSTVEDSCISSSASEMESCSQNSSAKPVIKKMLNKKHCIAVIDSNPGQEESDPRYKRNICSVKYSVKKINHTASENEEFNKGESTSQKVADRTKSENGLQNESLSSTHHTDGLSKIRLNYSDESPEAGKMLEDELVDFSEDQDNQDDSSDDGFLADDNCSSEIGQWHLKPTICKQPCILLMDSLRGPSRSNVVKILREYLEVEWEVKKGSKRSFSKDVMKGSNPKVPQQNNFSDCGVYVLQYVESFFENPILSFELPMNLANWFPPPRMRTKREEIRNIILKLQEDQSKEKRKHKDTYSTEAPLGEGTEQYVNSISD

[8] = molecular target: T5, Sentrin-specific protease 6; test: inhibition of human SENP6 catalytic domain – biochemical, luminescence, set 2, SAR follow-up (AID 588598); format: functional
[9] = molecular target: T4, Sentrin-specific protease 7; test: inhibition of human SENP7 cleavage activity – biochemical, luminescence, SAR follow-up (AID 504497); format: functional
[10] = molecular target: Glycogen synthase kinase-3 alpha (Homo sapiens, UniProt P49840); test: Inhibition of Human GSK-3 alpha Activity Measured in Biochemical System Using Microfluidics - 2063-06_Inhibitor_Dose_DryPowder_Activity_Set2. [Related pubchem assays (depositor defined):AID2709]
Sequence of Glycogen synthase kinase-3 alpha (P49840 whole entry): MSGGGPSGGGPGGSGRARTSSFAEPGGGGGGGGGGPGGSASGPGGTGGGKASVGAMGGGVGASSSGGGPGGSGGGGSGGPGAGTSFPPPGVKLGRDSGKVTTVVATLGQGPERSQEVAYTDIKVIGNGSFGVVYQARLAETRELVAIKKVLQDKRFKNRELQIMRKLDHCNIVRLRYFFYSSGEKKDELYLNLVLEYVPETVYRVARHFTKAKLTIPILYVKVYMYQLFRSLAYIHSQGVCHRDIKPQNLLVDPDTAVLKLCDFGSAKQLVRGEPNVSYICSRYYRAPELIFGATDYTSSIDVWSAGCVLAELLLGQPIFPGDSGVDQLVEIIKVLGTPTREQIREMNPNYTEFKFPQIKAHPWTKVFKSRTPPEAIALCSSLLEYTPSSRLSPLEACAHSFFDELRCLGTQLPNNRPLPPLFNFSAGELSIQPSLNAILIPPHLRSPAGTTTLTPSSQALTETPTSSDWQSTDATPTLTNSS

[11] = molecular target: Glycogen synthase kinase-3 beta (Homo sapiens, UniProt P49841); test: Inhibition of Human GSK-3 beta Activity Measured in Biochemical System Using Microfluidics - 2063-05_Inhibitor_Dose_DryPowder_Activity_Set2. [Related pubchem assays (depositor defined):AID2709]
Sequence of Glycogen synthase kinase-3 beta (P49841 whole entry): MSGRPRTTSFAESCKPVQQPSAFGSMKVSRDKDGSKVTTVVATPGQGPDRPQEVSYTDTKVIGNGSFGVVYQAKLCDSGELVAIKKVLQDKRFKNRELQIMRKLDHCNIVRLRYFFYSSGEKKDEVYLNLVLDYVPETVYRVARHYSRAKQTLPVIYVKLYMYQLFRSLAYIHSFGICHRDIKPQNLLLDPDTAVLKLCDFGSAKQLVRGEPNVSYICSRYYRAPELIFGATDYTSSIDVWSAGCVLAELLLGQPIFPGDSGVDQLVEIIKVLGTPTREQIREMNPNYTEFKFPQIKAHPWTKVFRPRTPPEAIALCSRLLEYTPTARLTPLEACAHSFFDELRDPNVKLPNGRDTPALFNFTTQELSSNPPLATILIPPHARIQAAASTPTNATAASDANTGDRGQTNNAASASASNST

[12] = molecular target: Cyclin-dependent kinase 5/CDK5 activator 1 (Homo sapiens, UniProt Q00535); test: human CDK5 activity blockade – biochemical, microfluidic mobility shift, dry powder, selectivity assay for GSK-3 alpha inhibitor project, dose response (AID 588430)
Sequence of Cyclin-dependent kinase 5/CDK5 activator 1 (Q00535 whole entry, the tested form may be a part): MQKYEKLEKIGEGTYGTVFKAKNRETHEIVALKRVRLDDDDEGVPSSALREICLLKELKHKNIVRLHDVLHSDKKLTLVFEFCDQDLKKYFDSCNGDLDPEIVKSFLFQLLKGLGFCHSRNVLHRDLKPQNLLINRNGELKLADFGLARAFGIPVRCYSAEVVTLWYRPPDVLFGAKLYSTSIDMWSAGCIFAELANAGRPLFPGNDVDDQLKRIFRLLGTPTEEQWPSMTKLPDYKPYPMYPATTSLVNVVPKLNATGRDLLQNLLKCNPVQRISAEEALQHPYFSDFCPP
Sequence of Cyclin-dependent kinase 5/CDK5 activator 1 (Q15078 whole entry, further chain, the tested form may be a part): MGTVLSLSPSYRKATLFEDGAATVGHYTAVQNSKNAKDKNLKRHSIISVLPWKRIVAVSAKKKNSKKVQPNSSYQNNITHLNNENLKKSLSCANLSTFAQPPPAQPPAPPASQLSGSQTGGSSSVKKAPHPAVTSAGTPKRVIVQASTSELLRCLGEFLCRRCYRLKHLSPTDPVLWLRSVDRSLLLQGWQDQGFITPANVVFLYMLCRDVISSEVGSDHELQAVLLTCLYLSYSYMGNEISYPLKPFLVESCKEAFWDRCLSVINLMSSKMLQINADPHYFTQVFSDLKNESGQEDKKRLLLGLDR

[13] = molecular target: T6, RNA-binding protein pos-1 (Caenorhabditis elegans, UniProt G5EF15); test: disruptors of C. elegans POS-1 RNA interaction – biochemical, fluorescence polarization, dose response (AID 1964);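 further: purified POS-1 fused to maltose binding protein made in E. coli; potency of compounds blocking POS-1 binding to fluorescent RNA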
T6 sequence (G5EF15 whole entry): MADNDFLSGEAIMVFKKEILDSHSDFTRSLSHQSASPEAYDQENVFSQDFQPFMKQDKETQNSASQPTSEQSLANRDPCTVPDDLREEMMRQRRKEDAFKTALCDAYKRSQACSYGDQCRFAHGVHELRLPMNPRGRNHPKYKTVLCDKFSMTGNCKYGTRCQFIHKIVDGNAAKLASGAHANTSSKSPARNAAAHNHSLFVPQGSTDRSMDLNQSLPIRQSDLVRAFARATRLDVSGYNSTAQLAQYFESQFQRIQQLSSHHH

[14] = molecular target: T7, Zinc finger protein mex-5 (Caenorhabditis elegans, UniProt Q9XUB2); test: potency of MEX-5 RNA-binding blockers – biochemical, C. elegans, fluorescence polarization, dose response (AID 1960)
T7 sequence (Q9XUB2 whole entry): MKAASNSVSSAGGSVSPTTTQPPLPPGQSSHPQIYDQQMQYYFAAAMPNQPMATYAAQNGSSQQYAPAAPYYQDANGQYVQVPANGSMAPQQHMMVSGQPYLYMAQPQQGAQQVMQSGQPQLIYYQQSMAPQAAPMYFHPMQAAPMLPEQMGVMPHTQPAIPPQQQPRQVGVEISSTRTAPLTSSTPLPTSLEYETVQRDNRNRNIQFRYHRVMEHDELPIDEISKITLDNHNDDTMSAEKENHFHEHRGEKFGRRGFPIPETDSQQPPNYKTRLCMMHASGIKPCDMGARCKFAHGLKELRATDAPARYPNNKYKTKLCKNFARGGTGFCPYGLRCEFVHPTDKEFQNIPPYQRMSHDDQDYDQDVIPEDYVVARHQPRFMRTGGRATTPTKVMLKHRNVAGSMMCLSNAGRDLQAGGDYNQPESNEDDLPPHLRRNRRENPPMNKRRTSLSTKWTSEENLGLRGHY

[15] = molecular target: Beta-lactamase (Pseudomonas aeruginosa, UniProt Q79MP6);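 further: biochemical dose-response test of metallo-beta-lactamase enzyme inhibition, read out by epi-absorbance; purified recombinant IMP-1 metallo-beta-lactamase with nitrocefin as substrate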
Sequence of Beta-lactamase (Pseudomonas aeruginosa, UniProt Q79MP6) (Q79MP6 whole entry): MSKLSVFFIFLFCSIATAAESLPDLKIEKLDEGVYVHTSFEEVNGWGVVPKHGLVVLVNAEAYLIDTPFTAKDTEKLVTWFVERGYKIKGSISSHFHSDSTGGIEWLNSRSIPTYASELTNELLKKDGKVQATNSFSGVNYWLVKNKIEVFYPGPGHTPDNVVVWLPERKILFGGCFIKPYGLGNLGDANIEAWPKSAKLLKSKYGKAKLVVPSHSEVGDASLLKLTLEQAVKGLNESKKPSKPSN

[16] = molecular target: Beta-lactamase (Salmonella choleraesuis (strain SC-B67), UniProt Q5J463)
Sequence of Beta-lactamase (Salmonella choleraesuis (strain SC-B67), UniProt Q5J463) (Q5J463 whole entry, the tested form may be a part): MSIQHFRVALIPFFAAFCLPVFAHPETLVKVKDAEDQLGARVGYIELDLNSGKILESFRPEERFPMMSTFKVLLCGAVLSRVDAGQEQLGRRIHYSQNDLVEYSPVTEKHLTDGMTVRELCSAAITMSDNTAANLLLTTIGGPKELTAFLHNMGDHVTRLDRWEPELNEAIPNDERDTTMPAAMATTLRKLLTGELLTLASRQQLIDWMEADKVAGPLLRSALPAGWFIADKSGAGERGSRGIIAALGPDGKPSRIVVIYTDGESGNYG

[17] = system: CHO; test: CHO cell viability loss, potency – luminescence, cytotoxicity control for TLR9-MyD88 binding inhibitor project, dose response (AID 588339); format: functional, cell-based, hamster; conditions: Cricetulus griseus;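 further: CHO cells stably coexpressing TLR9 and MyD88 fusions from primary screen; compound exposure lasted 48 hours before viability readout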
[18] = molecular target: Beta Lactamase (Pseudomonas aeruginosa, UniProt Q932Y6); test: BLA reporter interference, concentration series – BLA reporter cells, FRET fluorescence, artefact control for TLR9-MyD88 binding inhibitor project, dose response (AID 588341); format: cell-based;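 further: cell based assay in CHO-K1 cells stably expressing beta-lactamase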
Sequence of Beta Lactamase (Q932Y6 whole entry): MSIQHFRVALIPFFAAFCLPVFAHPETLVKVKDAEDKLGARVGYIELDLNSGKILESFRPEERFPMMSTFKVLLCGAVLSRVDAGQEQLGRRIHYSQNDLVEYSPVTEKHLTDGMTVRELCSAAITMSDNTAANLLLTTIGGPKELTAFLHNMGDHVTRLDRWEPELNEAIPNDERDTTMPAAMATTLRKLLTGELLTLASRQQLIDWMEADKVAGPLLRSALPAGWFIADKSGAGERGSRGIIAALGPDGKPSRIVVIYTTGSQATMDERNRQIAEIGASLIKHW

**Q.** How did the EC50 [1] turn out when `CN(Cc1ccc(F)cc1)C(=O)c1sccc1-c1ccccc1` was run?
**A.** 18.2 µM (active)

**Q.** What does the source list for `CCCCc1ccc2nc(NC(=O)c3ccco3)sc2c1`?
**A.** IC50 [2]: 2 µM (active); IC50 [3]: 3.36 µM (active); IC50 [4]: 2.95 µM (active); IC50 [5]: 4 µM (active); IC50 [6]: 3.3 µM (active); IC50 [7]: 1.8 µM (active); IC50 [8]: 2.89 µM (active); IC50 [9]: 1.6 µM (active)

**Q.** What does the source list for `O=C(CN1C(=O)CCC1=O)Nc1cccc2c1C(=O)NC2=O`?
**A.** AC50 [10]: 459 nM (active); AC50 [11]: 261 nM (active); AC50 [12]: 20.2 µM (active)

**Q.** `CCN(CC)c1ccc(/C=C/C(=O)c2ccc(Br)cc2)cc1` was tested. Which EC50 [13] did it give?
**A.** 13.8 µM (inconclusive)

**Q.** What about the EC50 [14] of the same compound?
**A.** 13.5 µM (inconclusive)

**Q.** What about the IC50 [15] of the same compound?
**A.** 11 µM (inactive)

**Q.** What about the IC50 [16] of the same compound?
**A.** 3.09 µM (active)

**Q.** What about the IC50 [17] of the same compound?
**A.** > 49.7 µM (inactive)

**Q.** What about the IC50 [18] of the same compound?
**A.** 3.82 µM (active)
